ChEMBL document CHEMBL1139057, “Rotenoids and flavonoids with anti-invasion of HT1080, anti-proliferation of U937, and differentiation-inducing activity in HL-60 from Erycibe expansa” (Bioorg Med Chem, 2007)
The source made the active and inactive calls. The rule behind the calls is not given here.

Assays:
[1] = tested on: HL-60; assay: Induction of human HL60 cells differentiation assessed as number of cells at 0.01 uM after 72 hrs by NBT reduction test; type: functional
[2] = tested on: HL-60; assay: […] human HL60 cells assessed NBT positive cells at 0.01 uM after 72 hrs by NBT reduction test; type: functional
[3] = tested on: HL-60; assay: Induction of human HL60 cells differentiation assessed as number of cells at 0.02 uM after 72 hrs by NBT reduction test; type: functional
[4] = tested on: HL-60; assay: […] human HL60 cells assessed NBT positive cells at 0.02 uM after 72 hrs by NBT reduction test; type: functional
[5] = tested on: HL-60; assay: […] human HL60 cells assessed NBT positive cells at 10 uM after 72 hrs by NBT reduction test; type: functional
[6] = tested on: HT-1080; assay: Antiproliferative activity against human HT1080 cells at 1 uM after 72 hrs by calcein-AM assay; type: functional; conditions: HT-1080, 72 h
[7] = tested on: HT-1080; assay: Inhibition of invasion of human HT1080 cells at 10 uM after 24 hrs; type: functional; conditions: HT-1080, 24 h
[8] = tested on: HT-1080; assay: Antiproliferative activity against human HT1080 cells at 3 uM after 24 hrs by calcein-AM assay; type: functional; conditions: HT-1080, 24 h
[9] = tested on: HT-1080; assay: Antiproliferative activity against human HT1080 cells at 1 uM after 48 hrs by MTT assay; type: functional; conditions: HT-1080, 48 h
[10] = tested on: U-937; assay: Antiproliferative activity against human U937 cells after 48 hrs by WST-8 assay; type: functional, cell-based; conditions: U-937, 48 h
[11] = tested on: HL-60; assay: Induction of human HL60 cells differentiation assessed as number of cells at 10 uM after 72 hrs by NBT reduction test; type: functional
[12] = tested on: HT-1080; assay: Antiproliferative activity against human HT1080 cells at 3 uM after 48 hrs by MTT assay; type: functional; conditions: HT-1080, 48 h
[13] = tested on: HT-1080; assay: Antiproliferative activity against human HT1080 cells at 30 uM after 24 hrs by calcein-AM assay; type: functional; conditions: HT-1080, 24 h
[14] = tested on: HT-1080; assay: Antiproliferative activity against human HT1080 cells at 10 uM after 48 hrs by calcein-AM assay; type: functional; conditions: HT-1080, 48 h
[15] = tested on: HT-1080; assay: Antiproliferative activity against human HT1080 cells at 30 uM after 72 hrs by calcein-AM assay; type: functional; conditions: HT-1080, 72 h
[16] = tested on: HT-1080; assay: Antiproliferative activity against human HT1080 cells at 1 uM after 48 hrs by calcein-AM assay; type: functional; conditions: HT-1080, 48 h
[17] = tested on: HT-1080; assay: Antiproliferative activity against human HT1080 cells at 3 uM after 48 hrs by calcein-AM assay; type: functional; conditions: HT-1080, 48 h
[18] = tested on: U-937; assay: Antiproliferative activity against human U937 cells after 72 hrs by WST-8 assay; type: functional, cell-based; conditions: U-937, 72 h
[19] = tested on: HL-60; assay: Induction of human HL60 cells differentiation assessed as number of cells at 20 uM after 72 hrs by NBT reduction test; type: functional
[20] = tested on: HT-1080; assay: Inhibition of proMMP9 production in human HT1080 cells by gelatin zymography analysis; type: functional, cell-based
[21] = tested on: HT-1080; assay: Antiproliferative activity against human HT1080 cells at 10 uM after 72 hrs by calcein-AM assay; type: functional; conditions: HT-1080, 72 h
[22] = tested on: HT-1080; assay: Antiproliferative activity against human HT1080 cells at 30 uM after 24 hrs by MTT assay; type: functional; conditions: HT-1080, 24 h
[23] = tested on: HT-1080; assay: Inhibition of invasion of human HT1080 cells at 1 uM after 24 hrs; type: functional; conditions: HT-1080, 24 h
[24] = tested on: HT-1080; assay: Antiproliferative activity against human HT1080 cells at 1 uM after 24 hrs by calcein-AM assay; type: functional; conditions: HT-1080, 24 h
[25] = tested on: HT-1080; assay: Antiproliferative activity against human HT1080 cells at 1 uM after 24 hrs by MTT assay; type: functional; conditions: HT-1080, 24 h
[26] = tested on: HT-1080; assay: Inhibition of invasion of human HT1080 cells at 30 uM after 24 hrs; type: functional; conditions: HT-1080, 24 h
[27] = tested on: HT-1080; assay: Antiproliferative activity against human HT1080 cells at 1 uM after 72 hrs by MTT assay; type: functional; conditions: HT-1080, 72 h
[28] = tested on: HT-1080; assay: Antiproliferative activity against human HT1080 cells at 30 uM after 48 hrs by calcein-AM assay; type: functional; conditions: HT-1080, 48 h
[29] = tested on: HT-1080; assay: Antiproliferative activity against human HT1080 cells at 10 uM after 24 hrs by calcein-AM assay; type: functional; conditions: HT-1080, 24 h
[30] = tested on: HT-1080; assay: Antiproliferative activity against human HT1080 cells at 3 uM after 24 hrs by MTT assay; type: functional; conditions: HT-1080, 24 h
[31] = tested on: HT-1080; assay: Inhibition of invasion of human HT1080 cells at 3 uM after 24 hrs; type: functional; conditions: HT-1080, 24 h
[32] = tested on: HT-1080; assay: Antiproliferative activity against human HT1080 cells at 3 uM after 72 hrs by MTT assay; type: functional; conditions: HT-1080, 72 h
[33] = tested on: HT-1080; assay: Antiproliferative activity against human HT1080 cells at 30 uM after 72 hrs by MTT assay; type: functional; conditions: HT-1080, 72 h
[34] = tested on: HT-1080; assay: Antiproliferative activity against human HT1080 cells at 30 uM after 48 hrs by MTT assay; type: functional; conditions: HT-1080, 48 h
[35] = tested on: HT-1080; assay: Antiproliferative activity against human HT1080 cells at 10 uM after 24 hrs by MTT assay; type: functional; conditions: HT-1080, 24 h
[36] = tested on: U-937; assay: Antiproliferative activity against human U937 cells after 24 hrs by WST-8 assay; type: functional, cell-based; conditions: U-937, 24 h
[37] = tested on: HT-1080; assay: Antiproliferative activity against human HT1080 cells at 10 uM after 48 hrs by MTT assay; type: functional; conditions: HT-1080, 48 h
[38] = tested on: HT-1080; assay: Antiproliferative activity against human HT1080 cells at 3 uM after 72 hrs by calcein-AM assay; type: functional; conditions: HT-1080, 72 h
[39] = tested on: HT-1080; assay: Antiproliferative activity against human HT1080 cells at 10 uM after 72 hrs by MTT assay; type: functional; conditions: HT-1080, 72 h
[40] = tested on: HL-60; assay: […] human HL60 cells assessed NBT positive cells at 30 uM after 72 hrs by NBT reduction test; type: functional
[41] = tested on: HT-1080; assay: Inhibition of proMMP2 production in human HT1080 cells by gelatin zymography analysis; type: functional, cell-based

| Compound | Activity [5] [%] | inhibition at 10 µM [7] [%] | inhibition at 3 µM [8] [%] | IC50 [10] [µM] | Activity [11] | inhibition at 3 µM [12] [%] | inhibition at 30 µM [13] [%] | inhibition at 10 µM [14] [%] | inhibition at 30 µM [15] [%] | inhibition at 3 µM [17] [%] | IC50 [18] [µM] | Activity [19] | inhibition at 10 µM [21] [%] | inhibition at 30 µM [22] [%] | inhibition at 30 µM [26] [%] | inhibition at 30 µM [28] [%] | inhibition at 10 µM [29] [%] | inhibition at 3 µM [30] [%] | inhibition at 3 µM [31] [%] | inhibition at 3 µM [32] [%] | other results |
| --- | --- | --- | --- | --- | --- | --- | --- | --- | --- | --- | --- | --- | --- | --- | --- | --- | --- | --- | --- | --- | --- |
| C=C1/C(=C\C=C2/CCC[C@]3(C)[C@@H]([C@H](C)CCCC(C)(C)O)CC[C@@H]23)C[C@@H](O)C[C@@H]1O [CALCITRIOL] |  |  |  |  |  |  |  |  |  |  |  |  |  |  |  |  |  |  |  |  | Activity [1]: 8 10^5/ml; Activity [2]: 15.6%; Activity [3]: 6.8 10^5/ml; Activity [4]: 27.9% |
| COc1cc2c(cc1OC)[C@@H]1C(=O)c3ccc4c(c3O[C@@H]1CO2)C=CC(C)(C)O4 [DEGUELIN] | 12.5 | 58 | -0.9 | 16 | 2.1 10^5/ml | 96.5 | 17 | 51 | 98.5 | 44.2 | 5.8 | 0.3 10^5/ml | 98.5 | 10.9 | 57.9 | 40.4 | -1.8 | 8.6 | 50.2 | 98.7 | inhibition at 1 µM [6]: 95.3%; inhibition at 1 µM [9]: 78.3%; inhibition at 1 µM [16]: 35.2%; Activity [20]: Active; inhibition at 1 µM [23]: 38%; inhibition at 1 µM [24]: 10.5%; inhibition at 1 µM [25]: 6.3%; inhibition at 1 µM [27]: 98.2%; inhibition at 30 µM [33]: 98.9%; inhibition at 30 µM [34]: 97.3%; inhibition at 10 µM [35]: 10.7%; IC50 [36]: 42 µM; inhibition at 10 µM [37]: 97.7%; inhibition at 3 µM [38]: 98.5%; inhibition at 10 µM [39]: 98.8%; Activity [40]: 22.2%; Activity [41]: Active |
| O=c1c(-c2ccc(O)cc2)coc2cc(O)cc(O)c12 [GENISTEIN] | 4.1 | 35.1 | 2.8 | 72 | 8.3 10^5/ml | 3.8 | 17.3 | 5.1 | 17.2 | 2 | 48 | 5.3 10^5/ml | 6 | 12.5 | 43.2 | 17.6 | 6.1 | -6.2 | 5.5 | -0.9 | inhibition at 30 µM [33]: 22.5%; inhibition at 30 µM [34]: 25.3%; inhibition at 10 µM [35]: -1.2%; IC50 [36]: > 100 µM; inhibition at 10 µM [37]: 9.3%; inhibition at 3 µM [38]: 1.5%; inhibition at 10 µM [39]: 1.7%; Activity [40]: 11.2% |
| COc1cc2c(cc1OC)[C@]1(O)C(=O)c3ccc4c(c3O[C@@H]1CO2)C=CC(C)(C)O4 [TEPHROSIN] | 5.9 | 49.2 | 7 | 23 | 4.5 10^5/ml | 97.9 | 13.7 | 67.7 | 98.3 | 63 | 7.3 | 1 10^5/ml | 98.2 | 3.8 | 67.6 | 83.2 | 5.9 | 0.8 | 29.6 | 98.7 | inhibition at 1 µM [6]: 97.8%; inhibition at 1 µM [9]: 96.4%; inhibition at 1 µM [16]: 54%; Activity [20]: Active; inhibition at 1 µM [23]: -9.3%; inhibition at 1 µM [24]: 5%; inhibition at 1 µM [25]: -1.9%; inhibition at 1 µM [27]: 98.7%; inhibition at 30 µM [33]: 98.6%; inhibition at 30 µM [34]: 98%; inhibition at 10 µM [35]: 2%; IC50 [36]: 30 µM; inhibition at 10 µM [37]: 98.1%; inhibition at 3 µM [38]: 97.9%; inhibition at 10 µM [39]: 98.9%; Activity [40]: 8.4%; Activity [41]: Active |
